Reference: patent US5266599A, “Use of (+)-1-[(3,4,5-trimethoxy)-benzyloxymethyl]-1-phenyl-N,N-dimethyl-n-propy lamine to increase gastric discharge in a subject” (priority 1989, dated 1993)
Entries after “also recorded” stand apart in the source; their conditions may differ. Counter-ions that a name gives are not always drawn. Like-named read-outs stand apart in the source and are kept apart here.

Experiments:
mu receptor = test: Binding affinity to opiate receptor mu (inhibition of binding of a specific radioactive ligand); conditions: for IC50: read-out: CI50, inhibition of 50% of the binding of a specific radioactive ligand, mu receptor
delta receptor = target: T1, delta receptor (Cavia porcellus, UniProt A0A286XTF2); test: biochemical; conditions: CI50, inhibition of 50% of the binding of a specific radioactive ligand
T1 construct: from tissue
T1 sequence (A0A286XTF2 1-366): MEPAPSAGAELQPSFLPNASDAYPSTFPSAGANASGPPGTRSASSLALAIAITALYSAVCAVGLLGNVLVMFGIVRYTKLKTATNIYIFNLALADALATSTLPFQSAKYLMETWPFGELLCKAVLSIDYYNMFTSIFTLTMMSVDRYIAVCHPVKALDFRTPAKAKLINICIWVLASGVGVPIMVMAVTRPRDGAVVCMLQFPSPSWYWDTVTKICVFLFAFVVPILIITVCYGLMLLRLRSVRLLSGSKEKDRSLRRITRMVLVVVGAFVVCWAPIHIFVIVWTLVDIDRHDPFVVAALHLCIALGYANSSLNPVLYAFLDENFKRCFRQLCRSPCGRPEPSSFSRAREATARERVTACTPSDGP

kappa receptor = target: T2, kappa receptor (Cavia porcellus, UniProt P41144); test: biochemical; conditions: CI50, inhibition of 50% of the binding of a specific radioactive ligand
T2 construct: from tissue
T2 sequence (P41144 whole entry): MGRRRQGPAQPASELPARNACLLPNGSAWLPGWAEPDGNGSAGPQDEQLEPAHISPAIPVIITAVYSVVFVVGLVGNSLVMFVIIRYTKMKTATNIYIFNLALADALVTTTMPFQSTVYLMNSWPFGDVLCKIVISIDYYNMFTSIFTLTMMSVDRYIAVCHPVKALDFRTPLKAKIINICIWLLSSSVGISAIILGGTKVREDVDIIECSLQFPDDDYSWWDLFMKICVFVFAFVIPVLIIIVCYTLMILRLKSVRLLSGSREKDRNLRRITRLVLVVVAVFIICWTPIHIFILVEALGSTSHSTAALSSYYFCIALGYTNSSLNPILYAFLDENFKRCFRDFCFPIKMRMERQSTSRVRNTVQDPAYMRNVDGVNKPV

[1] = tested on: abdominal cramps caused by acetic acid; test: Analgesic activity in vivo, abdominal cramps caused by intraperitoneal acetic acid (derived from Koster); set-up: species or system mice
[2] = tested on: opiate receptors of the gastric mucous membrane; test: Effect of the products on the gastric evacuation of solids in dogs; type: in vivo; conditions: for Variation in % of gastric evacuation of solids: oral capsule, one hour after meal; for effect on gastric discharge of solids (in words): one hour after administration
Protocol: The principle of the test consists in measuring the gastric content of the animals one hour after eating a meal comprising 400 g of solid matter with 21.7% dry matter composed of:
and 20 g of sheeps liver containing radiolabelled cyanocobalamine. The meal is consumed within about 5 minutes by the animals. After one hour, the gastric content is collected by means of a small tube placed approximately 10 cm into the pyloris before the experiment.
The collected sample is weighed and homogenized. Its radioactivity is measured and the amount of the gastric discharge expressed in percentage is calculated according to the formula: [formula] in which: […]
In practice, each test is carried out on three dogs and consists in administering to them, 20 minutes before eating the meal described above, a capsule containing the test product at a dose of […] per kg animal weight or a capsule placebo which serves to determine the control phenomenon of the discharge on the animal. The 3 dogs receive each treatment twice in random order. […] The meal is presented and ingested 20 minutes after the capsule containing the test product has been administered. The evacuation values of the solid phases are measured as described before and compared using the test of Mann and Whitney (U test). The difference in comparison with the control values is considered significant when p is<or =0.05.
The effect of the test products is objectivised by the percentage variation calculated according to the relation: [formula]

[3] = Solubility, hygroscopicity and stability of the addition salt; conditions: D-(-) tartaric acid salt
[4] = tested on: opiate receptors of the kappa type in the gastric mucous membrane; conditions: dog, in vivo, cited from earlier work
[5] = tested on: opiate receptors mu, delta and kappa; type: binding
mice = test: Acute toxicity, oral, in male mice; type: in vivo
Protocol: (§1) This toxicity has been studied orally in male mice. The test products have been administered at the rate of 2 ml of their aqueous solution per 100 g of animal weight. The animals are then observed for 3 hours after administration, then daily for fourteen days, when they are sacrificed and then an autopsy is carried out.
(§2) The LD50 (lethal doses which cause the death of 50% of the animals) have been calculated according to the method of Reed J. L. and Muench H. (Am. J. Hyg. 1939, 27, p. 493).

[6] = Acute toxicity, oral, in male mice; type: in vivo; conditions: mouse, in vivo, po, fourteen days
Protocol: as §1, §2

duodenum of the rat = test: tissue or blood; type: cell-based; conditions: for IC50: Rattus norvegicus
gastric discharge = conditions: in vivo; cited from earlier work
[7] = mu receptor, racemates uncorrected
[8] = in vitro, compared with the (+) enantiomer or other receptors

CCC(COCc1ccc(OC)c(OC)c1)(c1ccccc1)N(C)C (racemic) [Ex. 1 of U.S. Pat. No. 4,301,163, (+/-)1-[(3,4-dimethoxy)benzyloxymethyl]-1-phenyl-N,N-dimethyl-n-propylamine]
IC50 (mu receptor; [7]): 1.11 µM
IC50 (delta receptor): 7.8 µM
IC50 (kappa receptor): 1.11 µM

CCC(COCc1ccccc1)(c1ccccc1)N(C)C (racemic) [Ex. 3 of U.S. Pat. No. 4,301,163, (+/-)1-benzyloxymethyl-1-phenyl-N,N-dimethyl-n-propylamine]
mu receptor affinity (in words) (mu receptor; [8]): just as, if not more active
IC50 (mu receptor; [7]): 0.19 µM
% analgesia ([1]; 50 mg/kg, orally, mice): 27.6%
IC50 (delta receptor): 14.7 µM
IC50 (kappa receptor): 0.56 µM

CCC(COCc1cc(OC)c(OC)c(OC)c1)(NC)c1ccccc1 (racemic) [Ex. 12 of U.S. Pat. No. 4,301,163]
mu receptor affinity (in words) (mu receptor; [8]): just as, if not more active
IC50 (mu receptor; [7]): 0.36 µM
% analgesia ([1]; 50 mg/kg, orally, mice): 44.0%
% analgesia, corrected for racemic compound (multiplied by two) ([1]; 50 mg/kg, orally, mice, racemate correction): 88.0%
IC50 (delta receptor): 2.25 µM
IC50 (kappa receptor): 2.28 µM

COc1ccc(C(C)(COCc2ccc(Cl)cc2)N(C)C)cc1 (racemic) [Ex. 13 of U.S. Pat. No. 4,301,163, (+/-) 1-(p-chlorobenzyloxymethyl)-1-(p-methoxyphenyl)N,N-dimethyl-n-ethylamine]
mu receptor affinity (in words) (mu receptor; [8]): just as, if not more active
IC50 (mu receptor; [7]): 0.25 µM
% analgesia ([1]; 50 mg/kg, orally, mice): 27.9%
IC50 (delta receptor): 4.39 µM
IC50 (kappa receptor): 0.9 µM

CCC(COC(=O)c1cc(OC)c(OC)c(OC)c1)(c1ccccc1)N(C)C (racemic) [Trimebutine, (+/-)-2-dimethylamino-2-phenyl-n-butyl 3,4,5-trimethoxybenzoate]
mu receptor affinity (in words) (mu receptor): just as, if not more active
IC50 (mu receptor): 0.146 µM
Variation in % of gastric evacuation of solids ([2]; 5 mg/kg): -4%
% analgesia ([1]; mouse, in vivo): 24.3%
% analgesia, corrected for racemic compound (multiplied by two) ([1]; mouse, in vivo): 48.6%
IC50 (delta receptor): 1.75 µM
IC50 (kappa receptor): 1.46 µM

CCC(COCc1cc(OC)c(OC)c(OC)c1)(c1ccccc1)N(C)C (single isomer, unassigned) [D-(-) tartaric acid addition salt, (+) 1-[(3,4,5-trimethoxy)-benzyloxymethyl]-1-phenyl-N-N-dimethyl-n-propylamineD-(-)-tartrate]
hygroscopicity (in words) [3]: without being hygroscopic
physico-chemical stability (in words) [3]: physico-chemical stability necessary for its use
solubility in water (in words) [3]: soluble in water

CCC1C2Cc3ccc(O)cc3C1(CC)CCN2Cc1ccoc1 (single isomer, unassigned) [MR 2266]
inhibition of the gastric discharge effect of the product of the invention by the antagonist (in words) ([2]; intravenous antagonist): inhibited
inhibition of the gastric discharge effect of kappa agonists (in words) [4]: inhibited

CCC(COCc1cc(OC)c(OC)c(OC)c1)(c1ccccc1)N(C)C (single isomer, unassigned; (+)) [(+) Enantiomer, (+) 1-[(3,4,5-trimethoxy)benzyloxymethyl]-1-phenyl-N,N-dimethyl-n-propylamine]
IC50 (mu receptor; [7]): 0.196 µM
Variation in % of gastric evacuation of solids, with MR 2266 ([2]; 0.25 mg/kg oral + MR 2266 0.1 mg per kg intravenous): +14%
Variation in % of gastric evacuation of solids, with naloxone ([2]; 0.25 mg/kg oral + naloxone 0.1 mg per kg intravenous): +5%
Variation in % of gastric evacuation of solids ([2]; 0.25 mg/kg): +110%
effect on gastric discharge of solids (in words) ([2]; listed as compound of the invention): increased discharge of solids in dogs
effect on gastric discharge of solids (in words) ([2]; listed as product of the invention): doubles the gastric evacuation of the solids; also recorded: clearly shows an activity which encourages gastric discharge of solids in dogs
receptor binding affinity to mu, delta and kappa (in words) [5]: shows a receptor binding affinity to the receptors mu, delta and kappa; also recorded: shows an "in vitro" affinity with the opiate receptors mu, delta and kappa; also recorded: showing an affinity to the three receptors studied, with a non-negligible intensity
toxicity relative to the levorotatory antipode (in words) (mice): about half as toxic
LD50 at 336 h [6]: 407 mg/kg
antispasmodic activity (in words) (duodenum of the rat): activity slightly above that of papaverine; also recorded: possesses an antispasmodic activity
IC50 (duodenum of the rat; read-out: molar concentration inhibiting 50% of the amplitude of spasms caused by barium chloride): 17 µM
% analgesia ([1]; mouse, in vivo): 17.6%
times less analgesic than the compound of Example 12 of the U.S. Patent ([1]; mouse, in vivo): ~5 times
times less analgesic than the trimebutine ([1]; mouse, in vivo): ~3 times
analgesic effect (in words) ([1]; mouse, in vivo, po): virtually without any analgesic effect; also recorded: does not have "in vivo", as one would expect it, a central analgesic activity; also recorded: very little analgesic effect
IC50 (delta receptor): 0.54 µM
IC50 (kappa receptor): 0.232 µM

CCC(COCc1cc(OC)c(OC)c(OC)c1)(c1ccccc1)N(C)C (single isomer, unassigned; (-)) [(-) Enantiomer, (-) 1-[(3,4,5-trimethoxy)benzyloxymethyl]-1-phenyl-N,N-dimethyl-n-propylamine]
IC50 (mu receptor; [7]): 0.58 µM
Variation in % of gastric evacuation of solids ([2]; 0.25 mg/kg): +26%
effect on gastric discharge of solids (in words) ([2]; listed as levorotatory enantiomer): four times less significant
LD50 (mice; fourteen days, 20160 min): 255 mg/kg
IC50 (delta receptor): 12.3 µM
IC50 (kappa receptor): 2.63 µM

CN1CC[C@]23c4c5ccc(O)c4O[C@H]2[C@@H](O)C=C[C@H]3[C@H]1C5 [Morphine]
antispasmodic activity (in words) (duodenum of the rat; barium chloride, duodenum of the rat, in vitro): inactive; also recorded: inactive at a concentration of more than 5 times greater than that of the product of the invention

COc1ccc(Cc2nccc3cc(OC)c(OC)cc23)cc1OC [Papaverine]
IC50 (duodenum of the rat; read-out: IC50, inhibition of 50% of the amplitude of contractions): 27.4 µM

CN1c2ccccc2C(c2ccccc2F)=NCC1CNC(=O)c1ccsc1 (stereo not shown) [Tifluadom]
gastric discharge after oral administration (in words) ([4]; po): increased gastric discharge; also recorded: modify the gastric discharge by their local action

CCN(CC)CCNC(=O)c1cc(Cl)c(N)cc1OC [metoclopramide]
gastric discharge (in words) (gastric discharge): possesses this property
